Measurements: patent US7842294B2, “Proteins belonging to the Bcl-2 family and fragments thereof, and their use in cancer patients” (Survac APS, priority 2003, dated 2010)
pEC50: −log10 of the molar value. Ends that are not written are not given here.

Assays:
HLA-A2 = biological target: T1, HLA-A2 (Homo sapiens, UniProt P04439, D140Y/D185E/D98H/E176V/E277Q/G131W/G231S/I119V/I121R/I166T/I218V/L300P/L318F/N151K/N90K/P208A/P217A/Q86G/Q94H/R138H/R169H/T345S); experiment: Assembly assay for peptide binding to MHC class I molecules (stabilisation of HLA from TAP-deficient T2 cells); conditions: recovery of HLA-A2 measured at 50, 5, 0.5, 0.05 μM peptide; read-out: C50 (concentration of the peptide required for half maximal binding to HLA-A2)
T1 construct: empty HLA molecules released upon cell lysis, from the TAP-deficient cell line T2; endogenous in cells; host or cells: T2 (TAP-deficient cell line), metabolically labelled with [35S]-methionine and lysed
Protocol: This assembly assay is carried out as described previously (2), and it is based on stabilisation of the HLA molecule after loading of peptide to the peptide transporter deficient cell line T2. Subsequently, correctly folded stable HLA heavy chains are immunoprecipitated using conformation dependent antibodies and the peptide binding is quantitated.
The binding affinity of the synthetic peptides (Invitrogen, Carlsbad, Calif., USA) to HLA-A2 molecules, metabolically labelled with [^35S]-methionine, was measured in the assembly assay, as described previously. The assay is based on peptide-mediated stabilisation of empty HLA molecules released upon cell lysis, from the TAP-deficient cell line T2. Stably folded HLA-molecules were immune-precipitated using the HLA class I-specific, conformation-dependent mAb W6/32, and separated by isoelectric focusing (IEF) gel electrophoresis. MHC heavy chain bands were quantified using the ImageGauge Phosphorimager program (FUJI photo film Co., Carrollton, Tex., USA). The intensity of the band is directly related to the amount of peptide-bound class I MHC complex recovered during the assay. Subsequently, the extent of stabilisation of HLA-A2 is directly related to the binding affinity of the added peptide. The recovery of HLA-A2 was measured in the presence of 50, 5, 0.5, 0.05 μM of the relevant peptide. The C50 value was calculated for each peptide as the peptide concentration sufficient for half maximal stabilisation.
The amino acid sequence of the Bcl-2 protein was screened for the most probable HLA-A2 nona- and decamer peptide epitopes, using the main HLA-A2 specific anchor residues (2). […] The assembly assay is based on stabilisation of the class I molecule after loading of different concentrations of peptide to the TAP-deficient cell line T2. Subsequently correctly folded stable MHC heavy chains are immunoprecipitated using conformation-dependent antibodies.

[1] = tested on: peptide epitope-specific interferon-γ releasing effector cells in PBL; experiment: IFN-γ ELISPOT on PBL stimulated once in vitro with peptide; format: cell-based, human; conditions: for healthy individuals with CTL response: 12 healthy HLA-A2 positive individuals
Protocol: To extend the sensitivity of the ELISPOT assay, PBL were stimulated once in vitro prior to analysis. At day 0, PBL or crushed lymph nodes were thawed and plated in 2 ml/well at a concentration of 2×10^6 cells in 24-well plates (Nunc, Denmark) in X-vivo medium (Bio Whittaker, Walkersville, Md.), 5% heat-inactivated human serum, and 2 mM of L-glutamine in the presence of 10 μM of peptide. Two days later 20 IU/ml recombinant interleukin-2 (IL-2) (Chiron, Ratingen, Germany) was added to the cultures. The cultured cells were tested for reactivity in the ELISPOT on day 12.
The ELISPOT assay was used to quantify peptide epitope-specific interferon-γ releasing effector cells as described previously (4). Briefly, nitrocellulose bottomed 96-well plates (MultiScreen MAIP N45, Millipore, Hedehusene, Denmark) were coated with anti-IFN-γ antibody (1-D1K, Mabtech, Nacka, Sweden). The wells were washed, blocked by X-vivo medium, and cells added in duplicates at different cell concentrations. Peptides were then added to each well and the plates were incubated overnight. The following day, media was discarded and the wells were washed prior to addition of biotinylated secondary antibody (7-B6-1-Biotin, Mabtech). The plates were incubated for 2 hours, washed and Avidin-enzyme conjugate (AP-Avidin, Calbiochem, Life Technologies) was added to each well. Plates were incubated at RT for 1 hour and the enzyme substrate NBT/BCIP (Gibco, Life Technologies) was added to each well and incubated at RT for 5-10 min. The reaction was terminated by washing with tap-water upon the emergency of dark purple spots. The spots were counted using the ImmunoSpot® Series 2.0 Analyzer (CTL Analyzers, LLC, Cleveland, US) and the peptide specific CTL frequency could be calculated from the numbers of spot-forming cells. All assays were performed in triplicates for each peptide antigen.

[2] = tested on: antigen-specific CTL in PBL; experiment: Granzyme B (GrB) ELISPOT; format: cell-based, human
Protocol: The Granzyme B (GrB) ELISPOT assay was used for measuring antigen-specific CTL cytotoxicity as described. Briefly, nitrocellulose bottomed 96-well plates (MultiScreen MAIP N45, Millipore) were coated with GrB Capture Antibody (BD Biosciences, Brondby, Denmark). The wells were washed and blocked by X-vivo medium with 5% human serum. The cells were added at different cell concentrations. T2 cells and peptides were then added to each well and the plates were incubated 4 hours, medium was discarded and the wells were washed prior to addition of GrB Detection Antibody (BD Biosciences). The plates were incubated for 2 hours, washed and Avidin horseradish peroxidase (BD Biosciences) was added to each well. Plates were incubated at RT for 1 hour AEC Substrate Reagent (BD Biosciences) was added to each well and incubated at RT for 5-10 min. The reaction was terminated by washing with tap-water upon the emergency of red spots. The spots were counted and the peptide specific CTL frequency was calculated like for the INF-γ ELISPOT. All assays were performed in duplicate or triplicates for each peptide antigen.

T2 cells = experiment: 51Cr-release cytotoxicity assay with bcl208-isolated T cells; format: cell-based, human; conditions: bcl208 reactive T cells enriched from a breast cancer patient, day 5
[3] = tested on: HLA-A2 positive breast cancer cell line MDA-MB-231; experiment: as above; format: cell-based, human; conditions: enriched bcl208 reactive T cells, Bcl-2 expressing
[4] = tested on: HLA-A2 negative breast cancer cell line ZR75-1
CD8+ T cells from PBL = experiment: FACS analysis with Pro5 MHC pentamer staining; format: cell-based, human; conditions: breast cancer patient no. 36, PBL stimulated once in vitro, HLA-A2/Bcl-XL173-182 pentamer
[5] = PBL from 15 HLA-A2 positive breast cancer patients

| Sequence | pEC50 (HLA-A2) | healthy individuals with CTL response [1] | patients with spontaneous CTL response [1, 5] | patients with spontaneous CTL response (%) [1, 5] | CLL patients with Bcl-2 response ([1]; ten HLA-A2 positive CLL patients, reactivity against bcl208 and bcl214, not broken down by peptide) | AML patients with Bcl-2 response ([1]; three AML patients, reactivity against bcl208 and bcl214, not broken down by peptide) | pancreatic cancer patients with CTL response ([1]; two HLA-A2 positive pancreatic cancer patients) | GrB release in controls ([2]; breast cancer patient no. 16 and healthy control h1) | recognition of peptide-pulsed T2 cells by CTL clones (GrB ELISPOT) ([2]; clones from HLA-A2/bcl208 bead-isolated cells, data not shown) | killing of T2 cells loaded with peptide versus unloaded (T2 cells) | lysis of MDA-MB-231 cells [3] | cytotoxicity against ZR75-1 cells [4] | CTL response in cancer patients of different origin (in words) ([1]; PBL from HLA-matched cancer patients) | breast cancer patients hosting an immune response ([1]; eighteen HLA-A2+ breast cancer patients, responder >25 spots per 10^5 cells) | peptide specific, IFNγ secreting CD8+ T cells ([1]; same CD8+ culture of breast cancer patient no. 36) | melanoma patients hosting an immune response ([1]; six HLA-A2+ melanoma patients, responder >25 spots per 10^5 cells) | frequency of peptide specific CTL (GrB ELISPOT) ([2]; Bcl-XL reactive breast cancer patients no. 35 and 36) | GrB release in control patient ([2]; breast cancer patient no. 17) | pentamer positive T cells among CD8+ T cells (CD8+ T cells from PBL) [%] |
| --- | --- | --- | --- | --- | --- | --- | --- | --- | --- | --- | --- | --- | --- | --- | --- | --- | --- | --- | --- |
| PLFDFSWLSL [bcl208] | 5.15 | one | twelve | ≈ 80% | five | two | both | no GrB release was detected | Several of these clones showed specific recognition | only T2 cells pulsed with bcl208 were killed | efficiently lysed | no cytotoxicity was observed |  |  |  |  |  |  |  |
| YLNDHLEPWI (Peptide derived from Bcl-XL) [Bcl-XL173-182] |  | no responses were detected |  |  |  |  |  |  |  |  |  |  | strong and frequent CTL responses | nine out of eighteen | around 1.4% | two out of six | 50-100 peptide specific CTL per 3×10^5 cells | no GrB release was detected | 0.24 |
